Measured values from US20240384268A1, “Oligonucleotides” (Hudson Institute of Medical Research, priority 2021, published 2024).
In the oligonucleotide strings, read from the 5' end, every base follows the letter of its sugar. An asterisk marks phosphorothioate; unmarked linkages are phosphodiester. Other units and linkages are bracketed, terminal groups are in braces. A string of capitals states the bases alone. d = 2'-deoxy (DNA); m = 2'-O-methyl

molecular target: cGAS (Homo sapiens, UniProt Q8N884); assay: ISD70-driven IP-10 (and IFN-β) production in THP-1 cells, ELISA; format: cell-based; parameters: endogenous in cells; host or cells: THP-1 (undifferentiated); conditions: MOE-modified ASO at 100 nM; averaged IP-10 levels relative to ISD70 condition
Sequence (Q8N884 whole entry): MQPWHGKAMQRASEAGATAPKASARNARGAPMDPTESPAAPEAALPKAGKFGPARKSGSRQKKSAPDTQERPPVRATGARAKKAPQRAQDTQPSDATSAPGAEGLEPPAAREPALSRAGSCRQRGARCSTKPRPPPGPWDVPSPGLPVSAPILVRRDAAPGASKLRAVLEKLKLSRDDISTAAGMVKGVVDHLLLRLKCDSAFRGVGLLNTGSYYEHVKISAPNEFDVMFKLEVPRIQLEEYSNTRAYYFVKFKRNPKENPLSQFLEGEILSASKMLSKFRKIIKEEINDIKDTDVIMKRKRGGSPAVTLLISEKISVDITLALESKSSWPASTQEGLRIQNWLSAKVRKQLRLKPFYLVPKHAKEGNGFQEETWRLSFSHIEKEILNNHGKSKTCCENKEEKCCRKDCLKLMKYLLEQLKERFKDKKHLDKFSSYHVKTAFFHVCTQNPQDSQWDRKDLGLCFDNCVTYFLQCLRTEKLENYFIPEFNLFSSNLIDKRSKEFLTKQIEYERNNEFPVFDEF

Row | Substance | cGAS 100 nM
1 | AGTCGTAGTTGCTTCCTAAC (antisense; 2'-MOE modified, pattern not given here) [MB21D1-1181 MOE] | 0.261
2 | ATGCCATCCACTTGATAGGC (antisense; 2'-MOE modified, pattern not given here) [EGFR-2874 MOE] | 0.639
3 | CGGAGGTCTTGGCTTCGTGG (antisense; 2'-MOE modified, pattern not given here) [MB21D1-525 MOE] | 0.111
4 | CGGCATCCACCACGTCGTCC (antisense; 2'-MOE modified, pattern not given here) [EGFR-3267 MOE] | 0.378
5 | GCCCATCCATGAGGTCCTGG (antisense; 2'-MOE modified, pattern not given here) [CTNN2B-2545 MOE] | 0.592
6 | GCTGACAAAGATTCACTGGT (antisense; 2'-MOE modified, pattern not given here) [HPRT-1353 MOE] | 0.335
7 | GGGTATCGAAAGAGTCTGGA (antisense; 2'-MOE modified, pattern not given here) [EGFR-3908 MOE] | 0.427
8 | GGTTTTGGCTGGGATCAAGT (antisense; 2'-MOE modified, pattern not given here) [CAMSAP1-4697 MOE] | 0.375
9 | GTCCAAGATCAGCAGTCTCA (antisense; 2'-MOE modified, pattern not given here) [CTNN2B-2341 MOE] | 0.705
10 | TCCGGCCTCGGAAGCTCTCT (antisense; 2'-MOE modified, pattern not given here) [MB21D1-168 MOE] | 0.250
11 | TGGCAGGCTCAGTGATGTCT (antisense; 2'-MOE modified, pattern not given here) [CTNN2B-1642 MOE] | 0.605
12 | TGGGCTGGAATCCGAGTTAT (antisense; 2'-MOE modified, pattern not given here) [EGFR-4705 MOE] | 0.433
13 | TGGGTTACGGCTCAGTATGG (antisense; 2'-MOE modified, pattern not given here) [CAMSAP1-4295 MOE] | 0.432
14 | TTTGCACACTTCGTACCCAA (antisense; 2'-MOE modified, pattern not given here) [CAMSAP1-4916 MOE] | 0.335

same assay, conditions: THP-1; 100 nM ASO overnight, then ISD70 2.5 μg/ml 7-8 h; percentage of ISD70 only

Row | Substance | cGAS-100 nM: averaged IP-10 levels relative to ISD70
15 | mA*mA*mA*mA*mG*A*T*T*A*T*C*T*T*C*T*mU*mU*mU*mA*mA (AAAAGATTATCTTCTUUUAA; sugars from the 5' end m5 d10 m5, all phosphorothioate, methylation of C not given here) [[CDKN2B-AS1]2133] | 57.68%
16 | mA*mA*mA*mA*mU*A*A*G*G*G*G*A*A*T*A*mG*mG*mG*mG*mA (mA*mA*mA*mA*mU*dA*dA*dG*dG*dG*dG*dA*dA*dT*dA*mG*mG*mG*mG*mA; antisense) [[CDKN2B-AS1]79] | 94.10%
17 | mA*mA*mA*mG*mA*T*T*A*T*C*T*T*C*T*T*mU*mU*mA*mA*mU (mA*mA*mA*mG*mA*dT*dT*dA*dT*dC*dT*dT*dC*dT*dT*mU*mU*mA*mA*mU) [[CDKN2B-AS1]2132] | 74.59%
18 | mA*mA*mA*mU*mG*T*C*C*T*G*G*C*C*C*T*mC*mA*mC*mU*mG (mA*mA*mA*mU*mG*dT*dC*dC*dT*dG*dG*dC*dC*dC*dT*mC*mA*mC*mU*mG) [[LINC-PINT]148.1] | 66.46%
19 | mA*mA*mG*mA*mU*T*A*T*C*T*T*C*T*T*T*mU*mA*mA*mU*mU (mA*mA*mG*mA*mU*dT*dA*dT*dC*dT*dT*dC*dT*dT*dT*mU*mA*mA*mU*mU) [[CDKN2B-AS1]2131] | 73.50%
